Measured values as given in publication PMC3425385 (2011).

Target: T1, KIAA1363 (AADACL1, NCEH1) (Homo sapiens, UniProt Q6PIU2)
T1 sequence (Q6PIU2 1-408): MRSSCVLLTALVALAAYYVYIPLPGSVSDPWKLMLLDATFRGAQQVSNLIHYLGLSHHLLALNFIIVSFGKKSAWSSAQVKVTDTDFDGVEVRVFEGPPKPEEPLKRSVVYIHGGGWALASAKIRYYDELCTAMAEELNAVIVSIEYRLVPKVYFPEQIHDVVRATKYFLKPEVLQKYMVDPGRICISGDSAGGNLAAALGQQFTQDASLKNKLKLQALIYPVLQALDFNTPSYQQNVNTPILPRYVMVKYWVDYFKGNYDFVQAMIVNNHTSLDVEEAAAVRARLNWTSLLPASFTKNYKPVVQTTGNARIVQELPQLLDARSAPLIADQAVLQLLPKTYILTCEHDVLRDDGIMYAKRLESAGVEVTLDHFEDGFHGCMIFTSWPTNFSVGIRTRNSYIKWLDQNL
Test: competitive gel-based ABPP with FP-Rh in PC3 cells in situ
Assay type: cell-based

Substance: JW576
- IC50: 340 ± 150 nM
